We go through one compound from paper PMC7290441 (Viruses, 2020).

Like-named read-outs stand apart in the source and are kept apart here. A value given as a limit tells only on which side of the number the result lay.

Data set [1] deals with A/Victoria/361/2011-like (H3N2). In words: microbe, parasite or virus in culture. As to conditions: Influenza A virus, H3N2, MDCK, 72 h, read-out: EC50 against A/Victoria/361/2011-like (H3N2).
Data set [2] deals with A/Puerto Rico/8/1934 (H1N1). In words: microbe, parasite or virus in culture. As to conditions: Influenza A virus, H1N1, MDCK, 72 h, read-out: EC50 against A/Puerto Rico/8/1934 (H1N1).
Data set [3] relates to A/Hong Kong/8/1968 (H3N2). Kind of data set: microbe, parasite or virus in culture. As to conditions: Influenza A virus, H3N2, MDCK, 72 h, read-out: EC50 against A/Hong Kong/8/1968 (H3N2).
Data set [4] concerns PR8 virus (viral proteins NP, HA, M1). It is filed as cell-based, influenza A virus. The settings on record: […]; nylidrin 100 μM, OSV-C 10 μM, RBV 100 μM.
The test system of the next data set is A/Perth/16/2009 (H3N2). In words: microbe, parasite or virus in culture. The settings on record: Influenza A virus, H3N2, MDCK, 72 h, read-out: EC50 against A/Perth/16/2009 (H3N2).
Data set [5] concerns A/California/7/2009 (H1N1). As to conditions: MDCK cells.
The nature of data set [6]: Cytotoxicity to mock-infected MDCK cells (MTT). The settings on record: dog.
The test system of a further data set is B/Lee/40. Kind of data set: microbe, parasite or virus in culture. The settings on record: Influenza B virus, MDCK, 72 h, read-out: EC50 against B/Lee/40.
In a further data set the test system is influenza B strain (Lee). Kind of data set: Chemical library screen, CPE reduction assay, influenza B. In kind it is cell-based, influenza B virus. As to conditions: 20 µM.
Data set [7] has as its system A/California/7/2009 (H1N1). Kind of data set: microbe, parasite or virus in culture. As to conditions: Influenza A virus, H1N1, MDCK, 72 h, read-out: EC50 against A/California/7/2009 (H1N1).
Data set [8] relates to influenza A viruses (PR8 and HK). In words: microbe, parasite or virus in culture. As to conditions: PR8, MDCK, read-out: viability of infected MDCK cells.
Data set [9] deals with A/Puerto Rico/8/1934 (H1N1). The settings on record: MDCK cells.
The test system of another data set is B/Brisbane/60/2008. In words: microbe, parasite or virus in culture. As to conditions: Influenza B virus, MDCK, 72 h, read-out: EC50 against B/Brisbane/60/2008.
Data set [10] concerns A/Seoul/11/1988 (H3N2). Kind of data set: microbe, parasite or virus in culture. The settings on record: Influenza A virus, H3N2, MDCK, 72 h, read-out: EC50 against A/Seoul/11/1988 (H3N2).
Data set [11] has as its system A/Brisbane/59/2007 (H1N1). In words: microbe, parasite or virus in culture. The settings on record: Influenza A virus, H1N1, MDCK, 72 h, read-out: EC50 against A/Brisbane/59/2007 (H1N1).
Data set [12] has as its system A/Seoul/11/1988 (H3N2). The settings on record: MDCK cells.
The subject of data set [13] is A/Brisbane/10/2007 (H3N2). Kind of data set: microbe, parasite or virus in culture. As to conditions: Influenza A virus, H3N2, MDCK, 72 h, read-out: EC50 against A/Brisbane/10/2007 (H3N2).
Data set [14] has as its system A/Brisbane/59/2007 (H1N1). The settings on record: MDCK cells.

The term CC50 denotes the concentration at which the toxic effect on the cells reaches its halfway point. A word on the viability: it is a per cent measure of how many cells are alive, often set against a control. For `CC(CCc1ccccc1)NC(C)C(O)c1ccc(O)cc1` (stereo not shown) [Nylidrin, nylidrin], the EC50 was greater than 100 µM in data set [1]; 7.2 ± 0.2 µM in [2]; 12.1 ± 1.6 µM in data set [3]; greater than 100 µM in the data set on A/Perth/16/2009 (H3N2); greater than 100 µM in the data set on B/Lee/40; 1.7 ± 0.5 µM in data set [7]. Besides, the EC50 was greater than 100 µM in the data set with B/Brisbane/60/2008, 38.8 ± 19.4 µM in the data set on A/Seoul/11/1988 (H3N2) [10], 3.5 ± 1.6 µM in data set [11] and greater than 100 µM in data set [13]. Further, the “viral proteins NP, HA and M1 (western blot)” value in [4] is “not detected”. In data set [5], the “S.I. (CC50/EC50), A/California/7/2009 (H1N1)” value was “(332.8)”. In [6], the CC50 at 3 days was found to be 549.2 ± 0.5 µM. Besides, the CPE-reduction entry in the data set on influenza B strain (Lee) is reported as “no benefit”. Besides, the viability at 20 µM in [8] was 80%. Further, the “S.I. (CC50/EC50), A/Puerto Rico/8/1934 (H1N1)” value is “(76.3)” in data set [9] and 76.3 in [9] (listed as nylidrin). Moreover, the “S.I. (CC50/EC50), A/Seoul/11/1988 (H3N2)” value in the data set on A/Seoul/11/1988 (H3N2) [12] is “(14.3)”. Also, in [14], the “S.I. (CC50/EC50), A/Brisbane/59/2007 (H1N1)” value is listed as “(156.9)”.
